Drawing on US20130345418A1, “PROCESS FOR PURIFICATION OF APREPITANT” (HETERO DRUGS LIMITED, priority 2006, published 2013), this text covers dissolution rate and mean particle size for two molecules.

Data set [1] is described as follows: dissolution rate of amorphous versus crystalline aprepitant. The class given is physicochemical. To be noted: compared with the known crystalline aprepitant.
For data set [2] the following is noted: aprepitant produced by the processes described in the prior art; cited from earlier work.
Data set [3] can be described thus: mean particle size of aprepitant. Format: physicochemical. Conditions: crystallized from ethyl acetate (Example 1).

Like-named read-outs stand apart in the source and are kept apart here.

As to `C[C@@H](O[C@H]1OCCN(Cc2n[nH]c(=O)[nH]2)[C@H]1c1ccc(F)cc1)c1cc(C(F)(F)F)cc(C(F)(F)F)c1` [amorphous aprepitant, 5-[[(2R,3S)-2-[(1R)-1-[3,5-bis(trifluoromethyl)phenyl]ethoxy]-3-(4-fluorophenyl)-4-morpholinyl]methyl]-1,2-dihydro-3H-1,2,4-triazol-3-one], the dissolution rate entry in data set [1] was “better dissolution rate than the known crystalline aprepitant”.

As to `C[C@@H](O[C@H]1OCCN(Cc2n[nH]c(=O)[nH]2)[C@H]1c1ccc(F)cc1)c1cc(C(F)(F)F)cc(C(F)(F)F)c1` [aprepitant, 5-[[(2R,3S)-2-[(1R)-1-[3,5-bis(trifluoromethyl)phenyl]ethoxy]-3-(4-fluorophenyl)-4-morpholinyl]methyl]-1,2-dihydro-3H-1,2,4-triazol-3-one], the mean particle size result in data set [2] was “about 12 microns”; in data set [3], 4.95 microns.
